US20170296457A1, “PRODUCTS AND METHODS FOR TREATING PERIORBITAL DYSCHROMIA” (The Procter & Gamble Company, priority 2016, published 2017)

System: B16-F1 mouse melanoma cell line
Test: B16 melanin synthesis inhibition assay
Type: cell-based
Details: B16-F1 cells, OD at 410 nm
Experimental: In this example, a commercially available B16-F1 mouse melanoma cell line from American Tissue Culture Collection, Virginia, USA was employed in a conventional melanin synthesis inhibition assay. The cell culture medium used in the assay is 500 mL of Dulbecco's Modified Eagle's Medium (DMEM), 50 mL Fetal Bovine Serum (FBS), and 5 mL of penicillin-streptomycin liquid. B16-F1 cells that are cultured in this medium and grown to greater than 90% confluency will synthesize melanin. While not intending to be bound by any theory, it is hypothesized that the melanin synthesis is stimulated by the culture medium and/or stress induced by growth to a high confluency. […] Equipment used in the assay include a CO2 incubator, such as a Forma Series Model 3110 by Therma Scientific, Massachusetts, USA; a hemocytometer, such as a Bright Line model by Hauser Scientific, Pennsylvania, USA; and a UV-Visible Spectrum Plate Reader, such as a SpectraMax250 from Molecular Devices, California, USA. […] Day 3: The cells from the T-150 flask are trypsinized, and the concentration of cells is determined using the hemacytometer. […] Read the 96 well plate using the UV-Vis Plate Reader at 410 nm to optically measure the amount of melanin produced between wells that are treated with the pumpkin seed extract and control wells that are not. […] The concentration of test agent needed to provide the IC 50 is recorded.

SMILES: Oc1ccc(OC2CCCCO2)cc1 (stereo not shown) [Deoxyarbutin]
- Concentration Needed for IC 50 (v/v): 0.008 v/v
